By IC50 is commonly meant the concentration that gives 50% inhibition. In general, LD50 refers to the dose at which mortality reaches 50%. High values mean lower toxicity, low ones greater toxicity.

The target of one data set is T1, Aromatase (Homo sapiens, UniProt P11511).
T1 construct: human placenta microsome; from tissue; host or cells: human placenta microsomes
T1 sequence (P11511 1-503): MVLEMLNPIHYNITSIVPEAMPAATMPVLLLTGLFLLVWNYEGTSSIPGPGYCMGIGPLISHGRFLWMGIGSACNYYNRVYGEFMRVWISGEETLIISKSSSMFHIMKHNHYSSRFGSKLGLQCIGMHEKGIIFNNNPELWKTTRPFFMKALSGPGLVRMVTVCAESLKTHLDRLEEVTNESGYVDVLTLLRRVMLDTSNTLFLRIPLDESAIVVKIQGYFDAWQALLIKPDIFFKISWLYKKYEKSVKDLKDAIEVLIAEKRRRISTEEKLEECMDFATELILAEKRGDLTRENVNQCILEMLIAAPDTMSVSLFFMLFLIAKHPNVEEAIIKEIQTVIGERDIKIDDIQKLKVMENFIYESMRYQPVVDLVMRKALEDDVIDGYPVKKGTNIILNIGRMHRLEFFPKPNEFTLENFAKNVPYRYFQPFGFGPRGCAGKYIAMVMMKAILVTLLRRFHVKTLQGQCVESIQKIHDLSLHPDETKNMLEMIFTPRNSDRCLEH
In words: Aromatase inhibitory activity (Pharmacological Test 1, human placenta microsome). Type of data set: biochemical. As to conditions: substrate 4-androsten-3,17-dione 1.0×10^-6 M, read-out: AI-IC50. The method, then:
Aromatase inhibitory activity was determined according to the method of E. A. Thompson and P. K. Siiteri [J. Biol. Chem., 249, 5364-5372 (1974)]. The each compound to be tested was added to a reaction vial containing human placenta microsome, [1β,2 β-^3 H]4-androsten-3,17-dione (3.3 kBq/500 pmol) and NADPH. […] The obtained [^3 H]H2 O was measured by a liquid scintillation counter. The measured quantity of [3H]H20 was used to determine aromatase activity, and was compared with the activity when incubated without inhibitor to calculate inhibition ratio (%).

Data set [1] addresses T2, cholesterol side-chain cleaving enzyme (Sus scrofa, UniProt P10612).
T2 construct: porcine adrenal mitochondria; from tissue; host or cells: porcine adrenal mitochondria
T2 sequence (P10612 40-520): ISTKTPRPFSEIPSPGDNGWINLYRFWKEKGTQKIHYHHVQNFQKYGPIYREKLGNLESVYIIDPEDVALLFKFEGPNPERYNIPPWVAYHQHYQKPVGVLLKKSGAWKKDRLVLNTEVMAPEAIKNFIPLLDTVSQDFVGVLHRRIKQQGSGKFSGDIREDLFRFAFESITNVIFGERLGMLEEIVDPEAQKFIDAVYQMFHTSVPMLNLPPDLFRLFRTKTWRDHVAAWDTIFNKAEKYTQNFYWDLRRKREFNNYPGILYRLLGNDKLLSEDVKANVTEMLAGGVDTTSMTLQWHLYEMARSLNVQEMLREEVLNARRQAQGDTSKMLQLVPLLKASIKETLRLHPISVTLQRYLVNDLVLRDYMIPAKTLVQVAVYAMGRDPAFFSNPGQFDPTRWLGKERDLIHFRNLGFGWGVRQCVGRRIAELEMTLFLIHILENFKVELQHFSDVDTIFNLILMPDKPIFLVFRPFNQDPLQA
In words: Inhibitory activity against cholesterol side-chain cleaving enzyme (Pharmacological Test 2, porcine adrenal mitochondria). To be noted: substrate 5-cholesten-3β-ol 5.0×10^-6 M, read-out: SCC-IC50. Type of data set: biochemical. The method, then: Inhibitory activity against cholesterol side-chain cleaving enzyme was determined according to the method of M. Shikita and P. F. Hall [Proc. Nat. […] Briefly, the each compound to be tested was added to a reaction vial containing porcine adrenal mitochondria, [4-^14 C]5-cholesten-3β-ol (250 Bq/5 nmol) and NADPH. […] These were separated by extracting the reaction mixture with methylene-dichloride followed by purifying with thin-layer chromatography. Substrate (5-cholesten-3β-ol) and reaction product (3β-hydroxypregn-5-en-20-one) were respectively measured by a liquid scintillation counter. The measured quantity of 3β-hydroxypregn-5-en-20-one was used to determine cholesterol side-chain cleaving activity which was compared with the activity when incubated without inhibitor to calculate inhibition ratio (%).

Data set [2] is described as follows: Acute toxicity in ICR female mice, oral (Pharmacological Test 4). As to conditions: mouse, in vivo, suspended in distilled water with 1% hydroxypropylcellulose, observation for fourteen days. The source says: The acute toxicity of the compounds of the present invention was examined by the following method.

As to `CN(c1ccc(Cl)cc1)c1nc(N2CCOCC2)nc(-n2ccnc2)n1` [Compound 55, 2-[N-(4-Chlorophenyl)-N-methylamino]-4-(1-imidazolyl)-6-morpholino-1,3,5-triazine], the IC50 was found to be 0.0077 µM at Aromatase and 26 µM in data set [1]. Moreover, in data set [2], the LD50 at 336 h is more than 400 mg/kg.

Consider `N#CC1(c2ccccc2)CCN(c2nc(N3CCOCC3)nc(-n3ccnc3)n2)CC1` [Compound 13, 2-(4-Cyano-4-phenylpiperidino)-4-(1-imidazolyl)-6-morpholino-1,3,5-triazine], for which the IC50 on Aromatase is 0.009 µM; in data set [1] it was 22 µM. The compound also returned an LD50 at 336 h in data set [2] of more than 400 mg/kg.

For the compound `c1cn(-c2nc(N3CCOCC3)nc(N3CCSCC3)n2)cn1` [Compound 37, 2-(1-Imidazolyl)-4-morpholino-6-thiomorpholino-1,3,5-triazine], the IC50 at Aromatase is 0.011 µM; in data set [1], more than 100 µM. In data set [2], this compound registered an LD50 at 336 h of more than 400 mg/kg.

Consider `c1cn(-c2nc(N3CCOCC3)nc(N3CCSC3)n2)cn1` [Compound 7, 2-(1-Imidazolyl)-4-morpholino-6-(3-thiazolidinyl)-1,3,5-triazine], for which the 50% inhibitory concentration (IC50) stood at 0.0066 µM at Aromatase and 72 µM in data set [1]. For the same compound, the LD50 at 336 h in data set [2] was in the range of 300 to 400 mg/kg.

As for `c1cn(-c2nc(N3CCOCC3)nc(N3CCOCC3)n2)cn1` [Compound 16, 2-(1-Imidazolyl)-4,6-dimorpholino-1,3,5-triazine], the IC50 on Aromatase is 0.0053 µM; in data set [1], more than 100 µM. Moreover, in data set [2], the LD50 at 336 h is 200 to 300 mg/kg.

On to `c1ccc(C2CCN(c3nc(N4CCOCC4)nc(-n4ccnc4)n3)CC2)cc1` [Compound 38, 2-(1-Imidazolyl)-4-morpholino-6-(4-phenylpiperidino)-1,3,5-triazine], for which the results for the 50% inhibitory concentration (IC50) (on Aromatase; in data set [1]) were 0.038 µM and 23 µM, respectively. The compound also showed an LD50 at 336 h in data set [2] of more than 400 mg/kg.

Turning to `O=[N+]([O-])c1ccc(N2CCN(c3nc(N4CCOCC4)nc(-n4ccnc4)n3)CC2)cc1` [Compound 45, 2-(1-Imidazolyl)-4-morpholino-6-[4-(4-nitrophenyl)-1-piperazinyl]-1,3,5-triazine], the figures for the half-inhibitory concentration (IC50) (on Aromatase; in data set [1]) were 0.0072 µM and more than 100 µM, respectively.

For the compound `CC(C)(C)OC(=O)C1CCCN1c1nc(N2CCOCC2)nc(-n2ccnc2)n1` (stereo not shown) [Compound 41, 2-(2-tert-Butoxycarbonyl-1-pyrrolidinyl)-4-(1-imidazolyl)-6-morpholino-1,3,5-triazine], the values for the IC50 (on Aromatase; in data set [1]) were 0.037 µM and more than 100 µM, respectively.

Consider `CN(c1ccccc1)c1nc(-n2ccnc2)nc(-n2ccnc2)n1` [Compound 32, 2,4-Bis(1-imidazolyl)-6-(N-methyl-N-phenylamino)-1,3,5-triazine], for which the IC50 on Aromatase was found to be 0.029 µM; in data set [1], 16 µM.

For the compound `c1cnc(N2CCN(c3nc(N4CCOCC4)nc(-n4ccnc4)n3)CC2)nc1` [Compound 44, 2-(1-Imidazolyl)-4-morpholino-6-[4-(2-pyrimidinyl)-1-piperazinyl]-1,3,5-triazine], the half-inhibitory concentration (IC50) at Aromatase is 0.033 µM; in data set [1], more than 100 µM.

With `CN1CCN(c2nc(-n3ccnc3)nc(-n3ccnc3)n2)CC1` [Compound 29, 2,4-Bis (1-imidazolyl)-6-(4-methyl-1-piperazinyl)-1,3,5-triazine], the concentration for half-maximal inhibition (IC50) on Aromatase came to 0.23 µM; in data set [1], 75 µM.

For `c1ccc(CN2CCN(c3nc(N4CCOCC4)nc(-n4ccnc4)n3)CC2)cc1` [Compound 9, 2-(4-Benzyl-1-piperazinyl)-4-(1-imidazolyl)-6-morpholino-1,3,5-triazine], the figures for the 50% inhibitory concentration (IC50) (at Aromatase; in data set [1]) were 0.017 µM and 15 µM, respectively.

For the compound `CN(C)c1nc(N2CCCCC2)nc(-n2ccnc2)n1` [Compound 3, 2-(1-Imidazolyl)-4-dimethylamino-6-piperidino-1,3,5-triazine], the concentration for half-maximal inhibition (IC50) is 0.77 µM on Aromatase and more than 100 µM in data set [1].

`c1cn(-c2nc(N3CCCC3)nc(N3CCCC3)n2)cn1` [Compound 17, 2-(1-Imidazolyl)-4,6-bis(1-pyrrolidinyl)-1,3,5-triazine]: the concentration for half-maximal inhibition (IC50) was 0.31 µM on Aromatase and more than 100 µM in data set [1].

Regarding `c1cn(-c2nc(N3CCCCC3)nc(-n3ccnc3)n2)cn1` [Compound 27, 2,4-Bis(1-imidazolyl)-6-piperidino-1,3,5-triazine], the results for the IC50 (on Aromatase; in data set [1]) were 0.064 µM and more than 100 µM, respectively.

With `CC(C)c1nccn1-c1nc(N(C)C)nc(-n2ccnc2)n1` [Compound 6, 2-(1-Imidazolyl)-4-(2-isopropyl-1-imidazolyl)-6-dimethylamino-1,3,5-triazine], the 50% inhibitory concentration (IC50) on Aromatase was 4.3 µM; in data set [1], more than 100 µM.

As for `c1cn(-c2nc(N3CCOCC3)nc(N3CCC4(CC3)OCCO4)n2)cn1` [Compound 12, 2-(4,4-Ethylenedioxypiperidino)-4-(1-imidazolyl)-6-morpholino-1,3,5-triazine], the figures for the IC50 (at Aromatase; in data set [1]) were 0.024 µM and more than 100 µM, respectively.

These data come from patent US5489591A, “S-triazine derivative and remedy for estrogen-dependent disease containing said derivative as effective component” (Zenyaku Kogyo Kabushiki Kaisha, priority 1992, dated 1996).
